Results published in US20250089709A1, “CALCIUM PHOSPHATE NANOPARTICLES LOADED WITH JASMONATE TO INDUCE EFFICIENT PLANT DEFENCE RESPONSES” (UNIVERSIDAD DE GRANADA, priority 2021, published 2025).
In brackets after ≈: the same amount, converted by molar mass. Read-outs that look alike come from different tables or passages of the source.

Legend:
[1] = tested on: B16-F10 cell line; experiment: In vitro cytotoxicity assay (MTS); assay type: cell-based; conditions: Mus musculus, 48 h, B16-F10 cells, 2 days incubation, read-out: IC50 (half inhibitory concentration, cell viability)
Procedure: Mouse skin melanoma (B16-F10, ATCC CRL-6322) cell line was purchased from the Cell Bank of CIC-UGR. B16-F10 cells were expanded in Eagle's minimum essential medium (EMEM) with Earle's balanced salt solution (EBSS) supplemented with 2 mM glutamine, and 10% foetal bovine serum (FBS), 1% nonessential amino acids (NEAA) and 1 mM sodium pyruvate (NaP) at 37° C. in a humidified atmosphere of 5% CO2.
Cells were detached from culture flasks by trypsinization, centrifuged and resuspended. Cell number and viability were assessed with the trypan-blue dye exclusion test. Then, 1.0·10^4 cells/well were seeded in a 96 flat transparent well and incubated at 37° C. in a humidified atmosphere of 5% CO2. […] After 2 days incubation, cell viability was evaluated by MTS assay using CellTiter 96® AQueous One Solution Reagent (Promega, Madison, WI) according to the manufacturer's instructions. Briefly, 20 μL of AQueous One Solution Reagent was added to each well and after 2 h of incubation, the absorbance at 490 nm was measured with a spectrophotometer (Infinite® 200 PRO NanoQuant, CIC-UGR). […] Each experiment was done in triplicate.
(§1) Statistical comparisons were analysed with GraphPad Prism software (version 6.0) using one-way or two-way ANOVA and Bonferroni's post hoc test. […] The half inhibitory concentrations (IC50) were calculated by the Graph Pad Prism, using the dose-response sigmoidal curves, p<0.05.

[2] = In vitro nano-MeJ protection assays (drops at 50° C., UV-Vis and Raman); assay type: physicochemical; conditions: dried drops after 24 hours at 50° C.
Procedure: Both of them were kept at 50° C. during 24 h. At scheduled times, the drops were observed using an iScope (Euromex) microscope, in bright field mode and under 40× objective. After 24 hours, the remained samples were analysed by Raman Spectroscopy (JASCO NRS-5100, Jasco International Co. Ltd, Japan) from CIC-UGR. The excitation line was provided by a diode laser emitting at a wavelength of 785 nm. The detector used is a Peltier cooled charge-couple device (CCD, 1024×256 pixels). Before the measurement, the Raman shift of the spectrometer was calibrated using the 520.7 cm-1 peak of crystalline silicon as standard. Each spectrum corresponds to the average of 3 acquisitions of 100 s each. The spectra were linearly base-line corrected for clarity. The same experiment was carried out by depositing on a crystallizer 30 drops of 100 μL of each sample to determine the ratio of protection. […] Then, the sample was centrifuged (12000 rpm, 10 minutes) to remove the nanoparticles before UV-Vis measurements. The ratio of protection (%) was calculated as MeJfinal/MeJinicial×100. Each test was performed in triplicates.

[3] = tested on: Monastrell (Vitis vinifera L.) grapevines; experiment: In vivo field experiments on vineyards, stilbene analysis in wines; conditions: for total stilbene concentration in wines: two applications
Procedure: The experiments were conducted in a randomized block design, in which five treatments were applied to three replicates, using 10 vines for each replication. Monastrell (Vitis vinifera L.) grapevines from experimental vineyards located in Cehegin (Murcia, Spain): were sprayed with five treatments, in order to evaluate nano-MeJ efficiency in the field. […] 200 mL of the product was foliarly applied to each plant at veraison. A second application was performed after 7 days. Then, when grapes reached their optimal maturity they were harvested and transported to the winery for winemaking. Vinifications were made in triplicate in 50-L stainless steel tanks using 50 kg of grapes, which were destemmed, crushed, and sulfited (8 g SO2/100 kg). Total acidity was corrected to 5.5 g/L with tartaric acid, and selected yeasts were added (Uvaferm VRB, Lallemand, 25 g/hL). The fermentative pomace contact period was 10 days during which the cap was punched down twice a day, and the temperature and must density were recorded. At the end of alcoholic fermentation, wines were pressed at 1.5 bars in a 75 L tank membrane press and packed in bag-in-box for further analysis.
The extraction method used was described by Guerrero et al. with some modifications. Briefly, 5 mL of wine were extracted with 5 mL of diethyl ether to which 25 μL of internal standard (Trans-4-Hydroxistilbene, 98%) were added. Samples were homogeneized with an Ultraturrax T-25 (Jankel Adnand Kunkel, IKA-Labortechnick, Germany) and stirred at 9600 rpm for 1 minute. […]
Stilbenes were identified and quantified by HPLC. Samples were analysed using a Waters2695 system equipped with a mass detector (Acquity QDA Waters). […] Stilbenes were quantified at 320 nm using trans-resveratrol, trans-piceid, piceatannol and ε-viniferin as external standards.
as §1

[4] = tested on: B16-F10 cell line; conditions: read-out: MeJ needed to decrease cell viability in a half; same cell line (B16-F10), previous results; cited from earlier work
[5] = cited from earlier work
[6] = tested on: Monastrell grapevine; conditions: cited from earlier work

In the case of `CC/C=C\CC1C(=O)CCC1CC(=O)OC` (racemic) [MeJ, methyl jasmonate], the IC50 [1] is reported as 2200 µM, the “Raman micro-analysis for MeJ signals” value [2] is reported as “did not show signals assignable to MeJ” and the “minimum concentration to observe important effects on stilbenes, elicitor conventionally applied” value ([3]; foliar application) is reported as 10 mM. For the same compound, the “total stilbene concentration in wines” value ([3]; foliar spray 5 mM MeJ (MeJ5) at veraison) was “not enough to produce the same enhancement in stilbene concentration”, the “total stilbene concentration in wines” value ([3]; foliar spray 10 mM MeJ (MeJ10) at veraison, vs non-treated control) was “significant (p<0.001) increase” and the IC50 [4] was 2600 µM. For the same compound, the solubility in water [5] was 340 µg/mL (≈ 1520 µM), the “total stilbenes in wines” value ([6]; foliar application of 10 mM, vs non-treated (control) plants) was “significant increase” and the “foliar concentration needed to promote stilbene production in grapes and wines” value ([6]; previous field experiments) was 10 mM.
